# Source: patent US20260021092A1, “STRUCTURE-BASED DESIGN OF A NOVEL CLASS OF DRUGS FOR NEURODEGENERATIVE DISEASE” (The Regents of the University of California, priority 2022, published 2026)
# Legend:
# [1] = biological target: T1, recombinant alpha-synuclein fibrils (Homo sapiens, UniProt P37840); assay: Thioflavin T fluorescence of alpha-synuclein fibrils; type: biochemical; details: equimolar 100 μM:100 μM, 48 hours at 37° C. in 1×PBS
# T1 construct: made in house; host or cells: E. coli BL21(DE3) Gold
# Description: Both compounds were incubated with equimolar ratios of recombinant alpha-synuclein fibrils (100 μM:100 μM) for 48 hours at 37° C. in 1×PBS. After incubation, Thioflavin T (ThT), a fluorescent marker of amyloid fibrils, was added to the samples and ThT fluorescence was measured. EGCG was used as a positive control for comparison. […] Next, transmission electron microscopy (EM) was performed for each sample. […] To obtain a quantitative evaluation of fibril reduction, fibrils were first incubated for 72 hours with compound, then 10 micrographs from random grid points were taken for each sample, and the numbers of fibrils per image were counted (FIG. 5c). […] Western blot analysis, staining for alpha-synuclein, was performed for fibril samples incubated with compounds for 48 hours (FIG. 5d). For untreated alpha-synuclein fibrils, we see a prominent band at 14 kDa corresponding with protein monomer. We also observe a large smear of higher molecular weight alpha-synuclein species, likely corresponding to oligomers or small fibrils, and a dark band at the top of the gel likely from larger fibrils. […] These physical and chemical properties are more predictive of oral bioavailability and central nervous system penetration compared to EGCG, making them more viable candidates for further drug development.
# Compounds were incubated quiescently with fibril samples (both recombinant and brain-derived) for 72 hours at 37° C.
# [2] = biological target: T2, MSA brain fibrils seeding HEK293T alpha-synuclein biosensor cells (Homo sapiens, UniProt P37840); assay: Alpha-synuclein biosensor cell seeding assay, MSA brain fibrils; type: cell-based; details: sub micromolar concentrations, 48 hours pre-incubation
# T2 construct: Extraction of sarkosyl-insoluble alpha-synuclein fibrils from neuropathologically confirmed brain samples of patients diagnosed with MSA; from tissue; host or cells: seed: MSA patient brain; reporter: stably transfected HEK293T cells from the Marc Diamond lab
# Description: Next, we tested the efficacy of the compounds to mitigate the intracellular seeding of MSA fibrils in biosensor cells. Brain-derived MSA fibrils robustly seed intracellular alpha-synuclein in HEK293T biosensor cells^21. […] Cells were imaged 48 hours and the number of fluorescent puncta per sample well was quantified.
# HEK293T biosensor cells stably expressing YFP-fused A53T mutant alpha-synuclein, developed and provided by the lab of Marc Diamond at UTSW were used. Cells were grown in DMEM (Life Technologies, cat. 11965092) with FBS (10% vol/vol; Life Technologies, cat. A3160401), penicillin/streptomycin (1%; Life Technologies, cat. 15140122), and Glutamax (1%; Life Technologies, cat. 35050061), at 37° C. and 5% CO2 in a humidified incubator. Compounds were incubated with recombinant or patient-derived alpha-synuclein fibrils for 48 hours in OptiMEM media then applied to ˜70% confluent biosensor cells. Prior to adding to cells, the coincubated compound/fibril solution was sonicated for 5 minutes in a cuphorn water bath, then mixed for 20 minutes with Lipofectamine 2000 in OptiMEM (1:20 dilution) for 20 minutes. 10 uL of the inhibitor/fibril+Lipofectamine mixture was added to 90 uL of cells plated in black 96-well tissue culture plates in triplicate for each concentration of compound tested. The number of seeded aggregates was quantified using a Celigo Image Cytometer (Nexcelom) in the YFP channel. Images were processed in ImageJ, background fluorescence from unseeded cells was subtracted, and the number of particles per image were counted using the Particle Analyzer function. The quantity of aggregates in each well was normalized to cell confluence. Standard deviation between triplicates and a nonlinear regression curve was used to calculate IC50 values for dose response curves. High quality fluorescent images were obtained using a ZEISS Axio Observer D1 fluorescence microscope in the YFP channel. […]
# [3] = biological target: T3, recombinant alpha-synuclein fibrils seeding HEK293T cells expressing YFP-fused A53T alpha-synuclein (Homo sapiens, UniProt P37840); assay: Alpha-synuclein biosensor cell seeding assay, recombinant fibrils; type: cell-based; parameters: number of fluorescent puncta (seeded aggregates): dose or concentration left out as unconfirmed; details: for number of fluorescent puncta (seeded aggregates): 48 hours pre-incubation
# T3 construct: made in house; host or cells: seed: E. coli BL21(DE3) Gold; reporter: stably transfected HEK293T cells from the Marc Diamond lab
# Text: It is thought that alpha-synuclein pathology propagates throughout the brain via a prion-like seeding mechanism^20. Alpha-synuclein aggregates in one cell can fragment and spread to neighboring cells, where they seed the aggregation of soluble protein. Molecules able to disaggregate pre-formed fibrils may be able to interrupt this process. To that end, we assessed if both compounds could mitigate intracellular seeding of αSyn fibrils using alpha-synuclein biosensor cells-HEK293T cells expressing A53T mutant alpha-synuclein fused with yellow fluorescent protein (YFP). At baseline, the fluorescently labeled alpha-synuclein remains soluble within the cell, visible as diffuse fluorescence. However, the liposome-mediated transduction of exogenous αSyn fibrils into the cells induces aggregation of the endogenous protein, and the aggregates can be visualized and quantified as fluorescent puncta within the cell.
# HEK293T biosensor cells stably expressing YFP-fused A53T mutant alpha-synuclein, developed and provided by the lab of Marc Diamond at UTSW were used. […] Prior to adding to cells, the coincubated compound/fibril solution was sonicated for 5 minutes in a cuphorn water bath, then mixed for 20 minutes with Lipofectamine 2000 in OptiMEM (1:20 dilution) for 20 minutes. 10 uL of the inhibitor/fibril+Lipofectamine mixture was added to 90 uL of cells plated in black 96-well tissue culture plates in triplicate for each concentration of compound tested. The number of seeded aggregates was quantified using a Celigo Image Cytometer (Nexcelom) in the YFP channel. Images were processed in ImageJ, background fluorescence from unseeded cells was subtracted, and the number of particles per image were counted using the Particle Analyzer function. The quantity of aggregates in each well was normalized to cell confluence. Standard deviation between triplicates and a nonlinear regression curve was used to calculate IC50 values for dose response curves. High quality fluorescent images were obtained using a ZEISS Axio Observer D1 fluorescence microscope in the YFP channel.
# [4] = biological target: T1, recombinant alpha-synuclein fibrils; assay: Western blot of alpha-synuclein fibrils treated with compound; type: biochemical; details: 48 hours with compound
# Description: Both compounds were incubated with equimolar ratios of recombinant alpha-synuclein fibrils (100 μM:100 μM) for 48 hours at 37° C. in 1×PBS. After incubation, Thioflavin T (ThT), a fluorescent marker of amyloid fibrils, was added to the samples and ThT fluorescence was measured. EGCG was used as a positive control for comparison. […] Next, transmission electron microscopy (EM) was performed for each sample. […] To obtain a quantitative evaluation of fibril reduction, fibrils were first incubated for 72 hours with compound, then 10 micrographs from random grid points were taken for each sample, and the numbers of fibrils per image were counted (FIG. 5c). […] Western blot analysis, staining for alpha-synuclein, was performed for fibril samples incubated with compounds for 48 hours (FIG. 5d). For untreated alpha-synuclein fibrils, we see a prominent band at 14 kDa corresponding with protein monomer. […]
# Samples were loaded onto a NuPAGE 12% Bis-Tris pre-cast protein gel and ran for 35 minutes at 200 V. To transfer protein from the gel to a nitrocellulose membrane an iBLOT2 dry blotting system was used. […] Signal was detected with Pierce ECL Plus Western Blotting Substrate (Cat #32132), and blot was imaged with a Pharos FX Plus Molecular Imager.
Compound,ThT signal [1],intracellular seeding by MSA brain fibrils [2],number of fluorescent puncta (seeded aggregates) [3],higher molecular weight alpha-synuclein species by Western blot [4],seeding at low compound concentrations [3]
"O=C(O[C@@H]1Cc2c(O)cc(O)cc2O[C@@H]1c1cc(O)c(O)c(O)c1)c1cc(O)c(O)c(O)c1 [EGCG, epigallocatechin gallate]",reduction in ThT signal,very significant reduction in intracellular seeding,dose-dependent reduction,,
"Cc1cc(C)c(NC(=O)Cn2nc3c4c(cccc4c2=O)-c2ccccc2-3)c(C)c1 [CNS-11, N-mesityl-2-(3-oxoindeno[1,2,3-de]phthalazin-2(3H)-yl)acetamide]",reduction in ThT signal,very significant reduction in intracellular seeding,dose-dependent reduction in aggregates,reduction in the higher molecular weight species,initial increase of seeding
"Cc1cccc(C)c1NC(=O)Cn1nc(Cc2ccccc2)c2ccccc2c1=O [CNS-11g, 2-(4-benzyl-1-oxophthalazin-2-yl)-N-(2,6-dimethylphenyl)acetamide]",reduction in ThT signal,very significant reduction in intracellular seeding,dose-dependent reduction in aggregates,reduction in the higher molecular weight species,not seen
